This note sets out measurements from the Kinase Knowledgebase extract (Sharma et al. 2016).

Structures are written as SMILES. A value given as a limit tells only on which side of the number the result lay.

Chain of MAPK14 (human) (Q16539 whole entry, looked up): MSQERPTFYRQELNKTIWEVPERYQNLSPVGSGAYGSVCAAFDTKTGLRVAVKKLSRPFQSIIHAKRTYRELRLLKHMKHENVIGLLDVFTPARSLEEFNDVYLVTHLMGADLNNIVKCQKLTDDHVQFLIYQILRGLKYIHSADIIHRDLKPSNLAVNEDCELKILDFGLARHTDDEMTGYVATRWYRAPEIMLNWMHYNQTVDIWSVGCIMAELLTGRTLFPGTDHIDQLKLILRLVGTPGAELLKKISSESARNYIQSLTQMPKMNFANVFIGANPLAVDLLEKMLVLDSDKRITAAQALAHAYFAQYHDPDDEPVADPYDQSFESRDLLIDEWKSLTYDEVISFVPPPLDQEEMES

The assay concerns the target MAPK14 (human) (UniProt Q16539). In words: Inhibition of MAPK14 Kinase Activity.
Turning to `Cc1ccccc1C(=O)c1c[nH]c2ncc(-c3ccsc3)cc12`, the IC50 (in general, the concentration that inhibits the measured activity by half) is ≤ 10 µM.
With `Cc1ccccc1C(=O)c1c[nH]c2ncc(-c3cccc(N)c3)cc12` the figure was ≤ 10 µM.
In the case of `O=C(c1cccc(O)c1)c1c[nH]c2ncc(-c3ccsc3)cc12` it was ≤ 10 µM; in that of `O=C(c1cccc(O)c1F)c1c[nH]c2ncc(-c3cccs3)cc12`, ≤ 10 µM; in that of `O=C(Nc1ccc(Cc2c[nH]c3ncccc23)cc1)Nc1ccc(Cl)c(C(F)(F)F)c1`, ≤ 10 µM.
With `O=C(c1c(F)ccc(NS(=O)(=O)c2ccccc2)c1F)c1c[nH]c2ncc(-c3cccnc3)cc12` the figure was ≤ 10 µM; with `CS(=O)(=O)Nc1cccc(-c2cnc3[nH]cc(C(=O)c4c(F)ccc(NS(C)(=O)=O)c4F)c3c2)c1`, ≤ 10 µM; with `CS(=O)(=O)Nc1ccc(F)c(C(=O)c2c[nH]c3ncc(-c4cccc(S(C)(=O)=O)c4)cc23)c1F`, ≤ 10 µM.
For `O=C(c1cccc(Cl)c1Cl)c1c[nH]c2ncc(-c3cccnc3)cc12`, the half-maximal inhibitory concentration (IC50) was ≤ 10 µM.
In the case of `CCCS(=O)(=O)Nc1ccc(F)c(C(=O)c2c[nH]c3ncc(-c4cccnc4)cc23)c1F` it was ≤ 10 µM.
For `Clc1ccc(Nc2ccnc3[nH]ccc23)cc1Cl`, the IC50 was ≤ 10 µM.
With `CCCS(=O)(=O)Nc1ccc(F)c(C(=O)c2c[nH]c3ncc(Cl)cc23)c1F` the figure was ≤ 10 µM; with `O=C(c1c(F)ccc(O)c1F)c1c[nH]c2ncc(-c3cccnc3)cc12`, ≤ 10 µM.
With `COC(=O)Nc1ccc(F)c(Cc2c[nH]c3ncc(-c4cccnc4)cc23)c1F` the figure was ≤ 10 µM; with `Cc1ccc(S(=O)(=O)NCc2c[nH]c3ncccc23)cc1`, ≤ 10 µM.
With `COc1cccc(C(=O)c2c[nH]c3ncc(-c4cccnc4)cc23)c1` the figure was ≤ 10 µM; with `O=C(c1cc(O)ccc1F)c1c[nH]c2ncc(-c3ccccc3)cc12`, ≤ 10 µM.
Turning to `Cn1cc(C(F)(F)F)c(-c2ccc(S(=O)(=O)NCc3c[nH]c4ncccc34)s2)n1`, the IC50 is ≤ 10 µM.
In the case of `Nc1cccc(-c2cnc3[nH]cc(C(=O)c4cccc(Cl)c4Cl)c3c2)c1` it was ≤ 10 µM.
In the case of `CCCS(=O)(=O)Nc1ccc(F)c(C(=O)c2c[nH]c3ncc(Br)cc23)c1F` it was ≤ 10 µM; in that of `CCCS(=O)(=O)Nc1ccc(F)c(C(=O)c2c[nH]c3ncc(-c4ccccc4)cc23)c1F`, ≤ 10 µM.
On to `CCCS(=O)(=O)Nc1ccc(Cl)c(C(=O)c2c[nH]c3ncc(-c4ccccc4)cc23)c1F`, for which the IC50 was ≤ 10 µM.
As to `O=C(c1ccccc1F)c1c[nH]c2ncc(-c3ccsc3)cc12`, the IC50 was ≤ 10 µM.
With `O=C(c1cc(O)ccc1F)c1c[nH]c2ncc(-c3cccnc3)cc12` the figure was ≤ 10 µM; with `Cc1nc(-c2ccnc3[nH]ccc23)no1`, ≤ 10 µM.
In the case of `Nc1cccc(-c2cnc3[nH]cc(C(=O)c4ccccc4F)c3c2)c1` it was ≤ 10 µM; in that of `CS(=O)(=O)Nc1cccc(-c2cnc3[nH]cc(C(=O)c4cccc(O)c4F)c3c2)c1`, ≤ 10 µM; in that of `CS(=O)(=O)Nc1ccc(Cl)c(C(=O)c2c[nH]c3ncc(Br)cc23)c1F`, ≤ 10 µM.
With `CC(=O)Nc1cccc(-c2cnc3[nH]cc(C(=O)c4ccccc4F)c3c2)c1` the figure was ≤ 10 µM.
As for `COc1cccc(C(=O)c2c[nH]c3ncc(-c4cccc(C(N)=O)c4)cc23)c1`, the IC50 was ≤ 10 µM.
In the case of `COc1cccc(CCc2c[nH]c3ncc(-c4ccsc4)cc23)c1` it was ≤ 10 µM.
In the case of `Cc1cccc(N(C)c2ccnc3[nH]ccc23)c1` it was ≤ 10 µM; in that of `O=C(c1c(F)ccc(NS(=O)(=O)c2ccccc2)c1F)c1c[nH]c2ncc(Br)cc12`, ≤ 10 µM; in that of `CCS(=O)(=O)Nc1ccc(F)c(C(=O)c2c[nH]c3ncc(-c4cccnc4)cc23)c1F`, ≤ 10 µM.
With `CS(=O)(=O)c1cccc(-c2cnc3[nH]cc(C(=O)c4cccc(O)c4F)c3c2)c1` the figure was ≤ 10 µM; with `O=C(c1cccc(O)c1F)c1c[nH]c2ncc(-c3cncnc3)cc12`, ≤ 10 µM; with `CS(=O)(=O)Nc1ccc(F)c(C(=O)c2c[nH]c3ncc(-c4cccnc4)cc23)c1F`, ≤ 10 µM.
`Cc1ccc(F)cc1C(=O)c1c[nH]c2ncc(-c3cccc(NS(C)(=O)=O)c3)cc12`: the IC50 was ≤ 10 µM.
Consider `CS(=O)(=O)Nc1ccc(Cl)c(C(=O)c2c[nH]c3ncc(-c4cccc(S(C)(=O)=O)c4)cc23)c1F`, for which the IC50 was ≤ 10 µM.
With `O=C(c1cc(O)ccc1F)c1c[nH]c2ncc(-c3cccs3)cc12` the figure was ≤ 10 µM; with `CS(=O)(=O)Nc1ccc(F)c(C(=O)c2c[nH]c3ncc(-c4cccnc4)cc23)c1`, ≤ 10 µM; with `O=S(=O)(NCc1c[nH]c2ncccc12)c1cc(Cl)c(Cl)s1`, ≤ 10 µM.
With `O=C(Nc1ccc(Cc2c[nH]c3ncccc23)cc1)Nc1cccc(C(F)(F)F)c1` the figure was ≤ 10 µM; with `Cc1c(O)cccc1C(=O)c1c[nH]c2ncc(-c3cccs3)cc12`, ≤ 10 µM; with `O=C(c1ccccc1O)c1c[nH]c2ncc(-c3cccs3)cc12`, ≤ 10 µM.
In the case of `Cc1ccc(F)cc1C(=O)c1c[nH]c2ncc(-c3ccc(C(N)=O)cc3)cc12` it was ≤ 10 µM.
`O=C(c1cccc(O)c1)c1c[nH]c2ncc(Br)cc12`: the IC50 was ≤ 10 µM.
In the case of `O=C(c1ccc(O)cc1Cl)c1c[nH]c2ncc(-c3cccs3)cc12` it was ≤ 10 µM; in that of `Nc1cccc(-c2cnc3[nH]cc(C(=O)c4ccc(Cl)cc4)c3c2)c1`, ≤ 10 µM.
With `COc1cccc(C(=O)c2c[nH]c3ncc(-c4cccs4)cc23)c1` the figure was ≤ 10 µM; with `O=C(c1cc(O)ccc1F)c1c[nH]c2ncc(-c3ccsc3)cc12`, ≤ 10 µM; with `CC(=O)Nc1cccc(-c2cnc3[nH]cc(C(=O)c4cccc(O)c4F)c3c2)c1`, ≤ 10 µM.
With `O=C(O)C=Cc1cccc(-c2cnc3[nH]cc(C(=O)c4cc(O)ccc4F)c3c2)c1` the figure was ≤ 10 µM; with `O=C(c1cccc(O)c1)c1c[nH]c2ncc(-c3cccs3)cc12`, ≤ 10 µM.
With `c1cnc2ccc(Nc3ccnc4[nH]ccc34)cc2c1`, the concentration for half-maximal inhibition (IC50) is ≤ 10 µM.
With `CS(=O)(=O)c1cccc(-c2cnc3[nH]cc(C(=O)c4cc(O)ccc4F)c3c2)c1` the figure was ≤ 10 µM; with `O=C(c1cccc(O)c1F)c1c[nH]c2ncc(-c3ccccc3)cc12`, ≤ 10 µM.
With `Oc1ccc(F)c(Cc2c[nH]c3ncc(Br)cc23)c1F` the figure was ≤ 10 µM.
Consider `O=C(c1cccc(NCc2ccccc2)c1)c1c[nH]c2ncccc12`, for which the IC50 is ≤ 10 µM.
With `CS(=O)(=O)Nc1ccc(F)c(C(=O)c2c[nH]c3ncc(Br)cc23)c1` the figure was ≤ 10 µM.
Consider `COc1cccc(C(=O)c2c[nH]c3ncc(-c4cccc(N)c4)cc23)c1`, for which the IC50 is ≤ 10 µM.
In the case of `O=C(c1c(F)ccc(NCc2ccccc2)c1F)c1c[nH]c2ncc(-c3cccnc3)cc12` it was ≤ 10 µM; in that of `NC(=O)c1ccc(-c2cnc3[nH]cc(C(=O)c4cccc(O)c4)c3c2)cc1`, ≤ 10 µM; in that of `COc1ccc(F)c(C(=O)c2c[nH]c3ncc(-c4cccnc4)cc23)c1`, ≤ 10 µM.
With `O=C(c1ccccc1F)c1c[nH]c2ncc(-c3ccccn3)cc12` the figure was ≤ 10 µM; with `NC(=O)c1ccc(-c2cnc3[nH]cc(C(=O)c4ccccc4F)c3c2)cc1`, ≤ 10 µM; with `CS(=O)(=O)Nc1ccc(F)c(C(=O)c2c[nH]c3ncc(-c4ccccc4)cc23)c1F`, ≤ 10 µM.
In the case of `Cc1c(O)cccc1C(=O)c1c[nH]c2ncc(-c3ccccc3)cc12` it was ≤ 10 µM.
In the case of `CS(=O)(=O)Nc1cccc(-c2cnc3[nH]cc(C(=O)c4c(Cl)ccc(NS(C)(=O)=O)c4F)c3c2)c1`, the IC50 is ≤ 10 µM.
In the case of `O=C(c1cc(O)ccc1F)c1c[nH]c2ncc(Br)cc12` it was ≤ 10 µM; in that of `O=C(Nc1ccc(F)c(C(=O)c2c[nH]c3ncc(-c4cccnc4)cc23)c1F)OCc1ccccc1`, ≤ 10 µM; in that of `CCCS(=O)(=O)Nc1ccc(Cl)c(C(=O)c2c[nH]c3ncc(-c4cccnc4)cc23)c1F`, ≤ 10 µM.
With `Fc1ccc(/C=C/c2ccnc3[nH]ccc23)cc1` the figure was ≤ 10 µM.
With `O=C(c1ccccc1F)c1c[nH]c2ncccc12` the figure was ≤ 10 µM; with `CS(=O)(=O)Nc1cccc(-c2cnc3[nH]cc(C(=O)c4cc(O)ccc4F)c3c2)c1`, ≤ 10 µM.
On to `O=S(=O)(NCc1c[nH]c2ncccc12)c1ccc(N2CCOCC2)nc1`, for which the IC50 is ≤ 10 µM.
With `CS(=O)(=O)Nc1cccc(-c2cnc3[nH]cc(C(=O)c4cc(NS(C)(=O)=O)ccc4F)c3c2)c1` the figure was ≤ 10 µM.
With `CS(=O)(=O)Nc1ccc(F)c(C(=O)c2c[nH]c3ncc(-c4ccccc4)cc23)c1` the figure was ≤ 10 µM; with `Nc1cccc(-c2cnc3[nH]cc(C(=O)c4ccc5nsnc5c4)c3c2)c1`, ≤ 10 µM; with `NC(=O)c1cccc(-c2cnc3[nH]cc(C(=O)c4cccc(O)c4F)c3c2)c1`, ≤ 10 µM.
In the case of `CS(=O)(=O)Nc1ccc(F)c(C(=O)c2c[nH]c3ncc(-c4cccc(C(N)=O)c4)cc23)c1F` it was ≤ 10 µM; in that of `Nc1ccc(F)c(C(=O)c2c[nH]c3ncc(-c4cccnc4)cc23)c1F`, ≤ 10 µM.
`c1ccc2c(Cc3c[nH]c4ncccc34)cccc2c1`: the IC50 is ≤ 10 µM.
Turning to `COc1cc(O)cc(Cc2c[nH]c3ncc(-c4ccsc4)cc23)c1`, the IC50 is ≤ 10 µM.
With `O=C(c1cc(F)ccc1F)c1c[nH]c2ncc(-c3ccsc3)cc12` the figure was ≤ 10 µM; with `Oc1cccc(Cc2c[nH]c3ncc(-c4ccsc4)cc23)c1`, ≤ 10 µM; with `CCc1cnc2[nH]cc(C(=O)c3cccc(O)c3)c2c1`, ≤ 10 µM.
In the case of `Oc1cc(O)cc(Cc2c[nH]c3ncc(-c4ccsc4)cc23)c1` it was ≤ 10 µM; in that of `CS(=O)(=O)Nc1ccc(F)c(C(=O)c2c[nH]c3ncc(-c4cccc(C(N)=O)c4)cc23)c1`, ≤ 10 µM; in that of `CCc1cnc2[nH]cc(C(=O)c3cccc(OC)c3)c2c1`, ≤ 10 µM.
In the case of `NC(=O)c1cccc(-c2cnc3[nH]cc(C(=O)c4cc(O)ccc4F)c3c2)c1` it was ≤ 10 µM.
Regarding `O=C(c1cccc(F)c1F)c1c[nH]c2nccc(-c3cc(F)cc(F)c3)c12`, the IC50 was ≤ 10 µM.
With `Brc1ccc(C=Cc2c[nH]c3ncccc23)cc1`, the IC50 is ≤ 10 µM.
